Experimental data: ChEMBL document CHEMBL1201862, “PubChem BioAssay data set” (2004)
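Briefly, cells in 96-well plates were exposed to five compound concentrations for 48 h, and endpoints were estimated by linear interpolation. GI50: concentration for 50% inhibition of growth.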 Active and inactive are the calls of the source. Rule as the data show it: active = GI50 up to about 1.1 µM and inactive = higher.

Columns and labels:
Assay in all cases: growth of human tumour cells (NCI), 48 h
A498 = test system: A498
COLO 205 = test system: COLO 205
DU-145 = test system: DU-145
HCC 2998 = test system: HCC 2998
MCF7 = test system: MCF7
MDA-MB-231 = test system: MDA-MB-231
MDA-MB-435 = test system: MDA-MB-435
MOLT-4 = test system: MOLT-4
NCI-H522 = test system: NCI-H522
PC-3 = test system: PC-3
RXF 393 = test system: RXF 393
SF-295 = test system: SF-295
SF-539 = test system: SF-539
SK-MEL-28 = test system: SK-MEL-28
SK-MEL-2 = test system: SK-MEL-2
SN12C = test system: SN12C
SW-620 = test system: SW-620
UACC-62 = test system: UACC-62
UO-31 = test system: UO-31
MDA-N = test system: MDA-N

| SMILES | GI50 (A498) | GI50 (COLO 205) | GI50 (DU-145) | GI50 (HCC 2998) | GI50 (MCF7) | GI50 (MDA-MB-231) | GI50 (MDA-MB-435) | GI50 (MOLT-4) | GI50 (NCI-H522) | GI50 (PC-3) | GI50 (RXF 393) | GI50 (SF-295) | GI50 (SF-539) | GI50 (SK-MEL-28) | GI50 (SK-MEL-2) | GI50 (SN12C) | GI50 (SW-620) | GI50 (UACC-62) | GI50 (UO-31) | GI50 (MDA-N) |
| --- | --- | --- | --- | --- | --- | --- | --- | --- | --- | --- | --- | --- | --- | --- | --- | --- | --- | --- | --- | --- |
| O=C(c1ccccc1)c1c(C(F)(F)F)[n+]([O-])c2ccccc2[n+]1[O-] | 2.19 µM (inactive) | 1.18 µM (inactive) | 1.73 µM (inactive) | 1.25 µM (inactive) | 0.652 µM (active) | 1.42 µM (inactive) | 0.798 µM (active) | 0.129 µM (active) | 0.459 µM (active) | 0.29 µM (active) | 1.46 µM (inactive) | 1.36 µM (inactive) | 1.83 µM (inactive) | 1.91 µM (inactive) | 1.5 µM (inactive) | 0.951 µM (active) | 1.48 µM (inactive) | 1.68 µM (inactive) | 0.879 µM (active) | – |
| O=C1CCCCC12CCC/C2=N\O (configuration not stated) | > 100 µM (inactive) | > 100 µM (inactive) | – | > 100 µM (inactive) | – | – | – | > 100 µM (inactive) | > 100 µM (inactive) | – | > 100 µM (inactive) | – | > 100 µM (inactive) | > 100 µM (inactive) | > 100 µM (inactive) | > 100 µM (inactive) | > 100 µM (inactive) | > 100 µM (inactive) | > 100 µM (inactive) | – |
| Cc1cc(C)cc(Nc2nnc3n2S(=O)(=O)c2cc(C)c(Cl)cc2S3)c1 | 5.09 µM (inactive) | 4.72 µM (inactive) | 10.3 µM (inactive) | 4.8 µM (inactive) | 3.77 µM (inactive) | 4.73 µM (inactive) | 6.03 µM (inactive) | 3.08 µM (inactive) | 3.56 µM (inactive) | 2.77 µM (inactive) | 3.03 µM (inactive) | 7.03 µM (inactive) | 2.89 µM (inactive) | 17.6 µM (inactive) | 2.7 µM (inactive) | 5.61 µM (inactive) | 3.45 µM (inactive) | 5.65 µM (inactive) | 7.14 µM (inactive) | – |
| Clc1ccc(C2SCc3nc4ccccc4n32)c(Cl)c1 (configuration not stated) | 15 µM (inactive) | 17 µM (inactive) | – | 14.6 µM (inactive) | – | – | – | 14.1 µM (inactive) | 15.7 µM (inactive) | – | 15.1 µM (inactive) | 8.36 µM (inactive) | 17.5 µM (inactive) | 16.6 µM (inactive) | 16.5 µM (inactive) | 14.6 µM (inactive) | 9.16 µM (inactive) | 17.7 µM (inactive) | 12.1 µM (inactive) | – |
| Cc1cc2c(cc1C)C(=O)/C(=C/c1ccccc1C(=O)O)C2 | 31.8 µM (inactive) | 19.5 µM (inactive) | > 100 µM (inactive) | 27.4 µM (inactive) | 50 µM (inactive) | – | 34.8 µM (inactive) | 25.4 µM (inactive) | 65.6 µM (inactive) | 33.9 µM (inactive) | > 100 µM (inactive) | 32.5 µM (inactive) | 18.7 µM (inactive) | 64.4 µM (inactive) | 35.4 µM (inactive) | 45.2 µM (inactive) | 46.8 µM (inactive) | 54.7 µM (inactive) | 50.6 µM (inactive) | 47.8 µM (inactive) |
| COC12OC3(C4OC41)C(C(=O)O[C@H]3CO[Si](C)(C)C(C)(C)C)C2S(=O)(=O)c1ccccc1 (some centres not stated) | – | 21.9 µM (inactive) | > 4.65 µM (inactive) | > 100 µM (inactive) | 4.1 µM (inactive) | > 4.65 µM (inactive) | > 4.65 µM (inactive) | 2.25 µM (inactive) | 17.1 µM (inactive) | > 4.65 µM (inactive) | < 0.01 µM (active) | > 25.5 µM (inactive) | > 100 µM (inactive) | 3.48 µM (inactive) | > 4.65 µM (inactive) | > 4.65 µM (inactive) | 1.52 µM (inactive) | > 4.65 µM (inactive) | > 4.65 µM (inactive) | – |
| CC(=O)OC1C2CCC3C(C)(O)C4CC(O)C(C)(C)C4(O)C(O)CC13CC2(C)O (configuration not stated) | > 100 µM (inactive) | > 100 µM (inactive) | > 100 µM (inactive) | > 100 µM (inactive) | > 100 µM (inactive) | > 100 µM (inactive) | – | – | > 100 µM (inactive) | > 100 µM (inactive) | – | > 100 µM (inactive) | > 100 µM (inactive) | – | > 100 µM (inactive) | > 100 µM (inactive) | – | > 100 µM (inactive) | > 100 µM (inactive) | > 100 µM (inactive) |
| CCc1ccc(Cc2ccc(CC)c(NC(=O)C(=O)Cc3nc4ccccc4nc3C)c2CC)c(CC)c1NC(=O)C(=O)Cc1nc2ccccc2nc1C | > 100 µM (inactive) | > 100 µM (inactive) | – | 62.5 µM (inactive) | – | – | – | 40.6 µM (inactive) | 26.4 µM (inactive) | – | 41.4 µM (inactive) | – | 36.8 µM (inactive) | 66.7 µM (inactive) | > 100 µM (inactive) | – | > 100 µM (inactive) | > 100 µM (inactive) | 17.7 µM (inactive) | – |
| CC(C)(C)OC(=O)C1/C(=C/CBr)CN1C(=O)OC(C)(C)C (configuration not stated) | 16.4 µM (inactive) | 2.56 µM (inactive) | – | 16.9 µM (inactive) | 3.76 µM (inactive) | – | 12.9 µM (inactive) | 6.56 µM (inactive) | – | 14.3 µM (inactive) | – | 15.9 µM (inactive) | 18.5 µM (inactive) | 17.7 µM (inactive) | > 10 µM (inactive) | 12.6 µM (inactive) | 5 µM (inactive) | 15.3 µM (inactive) | 18.8 µM (inactive) | 14.7 µM (inactive) |
| COc1ccc(C(=O)C=C2NCCN2)cc1 | > 100 µM (inactive) | > 100 µM (inactive) | – | > 100 µM (inactive) | – | – | – | > 100 µM (inactive) | > 100 µM (inactive) | – | > 100 µM (inactive) | > 100 µM (inactive) | > 100 µM (inactive) | > 100 µM (inactive) | > 100 µM (inactive) | > 100 µM (inactive) | > 100 µM (inactive) | > 100 µM (inactive) | > 100 µM (inactive) | – |
| O=C(O)CC(NC(=O)C(F)(F)F)C(=O)NC1Cc2ccccc2OC1=O (configuration not stated) | – | – | > 100 µM (inactive) | > 100 µM (inactive) | > 100 µM (inactive) | – | > 100 µM (inactive) | > 100 µM (inactive) | > 100 µM (inactive) | > 100 µM (inactive) | > 100 µM (inactive) | > 100 µM (inactive) | > 100 µM (inactive) | > 100 µM (inactive) | > 100 µM (inactive) | > 100 µM (inactive) | > 100 µM (inactive) | > 100 µM (inactive) | > 100 µM (inactive) | > 100 µM (inactive) |
| N#CC1(CCCCl)CCCCC1 | > 100 µM (inactive) | > 100 µM (inactive) | – | > 100 µM (inactive) | – | – | – | > 100 µM (inactive) | > 100 µM (inactive) | – | > 100 µM (inactive) | > 100 µM (inactive) | > 100 µM (inactive) | > 100 µM (inactive) | > 100 µM (inactive) | > 100 µM (inactive) | > 100 µM (inactive) | > 100 µM (inactive) | > 100 µM (inactive) | – |
| C=CCOC(C)n1c(C)c(Br)c(=O)[nH]c1=O (configuration not stated) | > 100 µM (inactive) | > 100 µM (inactive) | – | > 100 µM (inactive) | – | – | – | > 100 µM (inactive) | > 100 µM (inactive) | – | > 100 µM (inactive) | > 100 µM (inactive) | > 100 µM (inactive) | > 100 µM (inactive) | > 100 µM (inactive) | > 100 µM (inactive) | > 100 µM (inactive) | > 100 µM (inactive) | > 100 µM (inactive) | – |
| O=C1CCC(c2nc3ccccc3o2)C(=O)N1 (configuration not stated) | > 100 µM (inactive) | > 100 µM (inactive) | – | > 100 µM (inactive) | – | – | – | > 100 µM (inactive) | > 100 µM (inactive) | – | > 100 µM (inactive) | > 100 µM (inactive) | > 100 µM (inactive) | > 100 µM (inactive) | > 100 µM (inactive) | > 100 µM (inactive) | > 100 µM (inactive) | > 100 µM (inactive) | > 100 µM (inactive) | – |
| CN(C(=O)[C@@H](NC(=O)OC(C)(C)C)c1ccccc1)[C@H]1CCCC[C@@H]1N1CCCC1 | > 100 µM (inactive) | > 100 µM (inactive) | > 100 µM (inactive) | – | > 100 µM (inactive) | > 100 µM (inactive) | > 100 µM (inactive) | > 100 µM (inactive) | > 100 µM (inactive) | > 100 µM (inactive) | – | > 100 µM (inactive) | > 100 µM (inactive) | > 100 µM (inactive) | > 100 µM (inactive) | > 100 µM (inactive) | > 100 µM (inactive) | > 100 µM (inactive) | > 100 µM (inactive) | – |
| CO[C@H]1C=C[C@]23c4cc5c(cc4CN(CC2O)[C@@H]3C1)OCO5 (some centres not stated) | 2.06 µM (inactive) | 2.58 µM (inactive) | 0.668 µM (active) | 2.58 µM (inactive) | – | 2.67 µM (inactive) | 2.81 µM (inactive) | 0.873 µM (active) | 1.72 µM (inactive) | 2.39 µM (inactive) | – | 0.375 µM (active) | 2.59 µM (inactive) | 2.17 µM (inactive) | 1.08 µM (active) | 3.3 µM (inactive) | 3.03 µM (inactive) | 2.18 µM (inactive) | 2.04 µM (inactive) | 3.93 µM (inactive) |
| N#C/C(=C\c1cc(O)ccc1O)C(N)=O | 41 µM (inactive) | 33.3 µM (inactive) | – | 67.3 µM (inactive) | – | – | – | 27 µM (inactive) | 18.2 µM (inactive) | – | 19 µM (inactive) | 47.6 µM (inactive) | 50.7 µM (inactive) | 37.1 µM (inactive) | 42.5 µM (inactive) | 50.4 µM (inactive) | 49.9 µM (inactive) | 30.4 µM (inactive) | 35.7 µM (inactive) | – |
